Tests used:
two-spotted mites = test: Spray test on two-spotted mites (TSM); set-up: species or system two-spotted mite; conditions: in vivo
Protocol: Method for Mites, Aphids, Bean Beetles and Army Worms
Three 5 oz. paper cups containing Henderson dwarf lima bean plants and one 5 oz. paper cup containing Orange Gem nasturtiums, all growing in vermiculite, are placed on a turntable and sprayed to thorough wetness with 25 ml of a solution of the candidate chemical at the appropriate concentration. Nasturtiums were already infested with 50-100 bean aphids (BA). A bean plant in one paper cup was already infested with 50-100 two-spotted mites (TSM). Leaves from the two remaining bean plants are removed following spraying and placed in disposable petri dishes with 5 southern armyworm (SA) larvae in one petri dish, and 5 Mexican bean beetle (MBB) larvae in the other petri dish. The rating is done approximately 48 hours after spraying as follows:
(§1) Results obtained with the novel insecticide of this invention at various concentrations of active chemical are tabulated below. The ratings given are for averages of three or more replicates. The oral lethal dose for 50 percent kill of laboratory rats is also recorded in the table. In conducting the toxicity tests on rats, 0.01 g of active chemical per ml in corn oil is employed as an additive to the diet of the animals.

Southern Corn Rootworm [1] = test: Southern corn rootworm (SCR) test in cups with corn; assay type: in vivo; conditions: for Corn Rootworm (SCR) rating: nine days after treatment; for toxicity to corn rootworm (in words): comparative tests, nineteen compounds
Protocol: Method for Southern Corn Rootworm (SCR)
Three 5 oz. paper cups planted each with one kernel of DeKalb XL-361 corn are treated two days after planting with 10 ml of a 125 ppm solution of the candidate compound. Compounds with high efficacy are tested at lower concentrations. The experiment is a 4×5 factorial in a randomized complete block design with three replications. The tests are evaluated nine days after treatment. The roots are inspected under a dissecting microscope and rated as follows:
SCR Rating % Root Feeding Damage
So as to obtain more meaningful results, all tests are performed at the same time of day, whenever possible, usually in the forenoon. Temperature,illumination and humidity are the same in all tests. Atmospheric pressure is not controlled.
as §1

Southern corn rootworm [2] = test: Corn rootworm control under corn growing conditions, aging in soil, root damage rating; assay type: in vivo, Diabrotica undecimpunctata howardi; set-up: AVERAGE ROOT DAMAGE RATINGS, Test No. 1 / AVERAGE ROOT DAMAGE RATINGS, Test No. 2 / AVERAGE ROOT DAMAGE RATINGS, Test No. 3 / AVERAGE ROOT DAMAGE RATINGS, Test No. 4 / AVERAGE ROOT DAMAGE RATINGS, Test No. 5: scale not given here; conditions: for AVERAGE ROOT DAMAGE RATINGS, Test No. 3 / AVERAGE ROOT DAMAGE RATINGS, Test No. 4 / AVERAGE ROOT DAMAGE RATINGS, Test No. 5: 1.0 lb/A; for AVERAGE ROOT DAMAGE RATINGS, Test No. 3 / AVERAGE ROOT DAMAGE RATINGS, Test No. 1: aged 11 days; for AVERAGE ROOT DAMAGE RATINGS, Test No. 4: aged 26 days; for AVERAGE ROOT DAMAGE RATINGS, Test No. 5 / AVERAGE ROOT DAMAGE RATINGS, Test No. 2: aged 41 days; for AVERAGE ROOT DAMAGE RATINGS, Test No. 1 / AVERAGE ROOT DAMAGE RATINGS, Test No. 2: 10.0 lb/A
Description: During this period of time in the soil the insecticide concentration diminishes as a result of leaching and the action of oxygen and soil microbes, so that it is difficult to maintain sufficient concentration to kill the rootworms. […] Less than a half dozen compounds enjoy substantial commercial success for this purpose. […] Carbofuran was therefore selected as a standard for comparison of his compound and closely related compounds for corn rootworm control under corn growing conditions. The organism used in these tests were Diabrotica undecimpunctata howardi, the Southern corn rootworm. The following method was employed in the tests:
Two parallel rows of corn (Pioneer 385 g×526 g untreated) were planted 2" apart down the center of Mirro No. C8509 aluminum bread pans, 5 kernels corn per row in greenhouse potting soil. The dimensions of the bread pans are 95/8"×51/2"×23/4" and lack holes in the bottoms of the pans. Each kernel of corn at time of germination was infested with 3-day-old SCR eggs, approximately 50 eggs per kernel. Test pans were treated by drenching 200 mls of test solution (Triton X-100, water and the test chemical dissolved in 5 mls acetone) on the surface of the soil in the bread pan. The schedule for treating, planting corn, and infesting with corn rootworm eggs were varied to test aging characteristics of the compounds in soil. The test pans were watered daily and held at 80° F. and 50% R.H. until rated. Root damage rating was done by the following rating sequence:
Rating % Root Damage Rating
The chemical compound which were tested were those of the structural formula [drawing 5] in which R represents tert.butyl, methyl, ethyl, propyl, butyl and isobutyl.
The comparison standard was carbofuran (2,3-dihydro-2,2-dimethyl-7-benzofuranyl methylcarbamate).
The tests were conducted during the months of July and August according to the time schedule as set forth below: […]

[3] = system: insects of the orders Coleoptera and Orthoptera; test: Effectiveness against insects of the orders Coleoptera and Orthoptera; assay type: in vivo

CSc1nc(C(C)(C)C)nn1C(=O)N(C)C [1-N,N-Dimethylcarbamyl-3-tert.butyl-5-methylthio-1,2,4-triazole]
miticidal activity (in words) (two-spotted mites): absence of miticidal activity | Corn Rootworm (SCR) rating (Southern Corn Rootworm [1]; 3 ppm, listed as U.S.Ser.No. 842,760): 3.0 | Corn Rootworm (SCR) rating (Southern Corn Rootworm [1]; 6 ppm): 3.3 | toxicity to corn rootworm (in words) (Southern Corn Rootworm [1]): displayed toxicity to corn rootworm | AVERAGE ROOT DAMAGE RATINGS, Test No. 3 (Southern corn rootworm [2]): 4.5 | AVERAGE ROOT DAMAGE RATINGS, Test No. 4 (Southern corn rootworm [2]): 4.1 | AVERAGE ROOT DAMAGE RATINGS, Test No. 5 (Southern corn rootworm [2]): 4.6 | AVERAGE ROOT DAMAGE RATINGS, Test No. 1 (Southern corn rootworm [2]): 5.0 | AVERAGE ROOT DAMAGE RATINGS, Test No. 2 (Southern corn rootworm [2]): 4.3 | duration of efficacy against corn rootworm (in words) (Southern corn rootworm [2]; compared with carbofuran): efficacy of long duration, comparable to the commercial insecticide | insecticidal effectiveness (in words) [3]: effective against insects of the orders Coleoptera and Orthoptera

CNC(=O)Oc1cccc2c1OC(C)(C)C2 [Carbofuran, 2,3-dihydro-2,2-dimethyl-7-benzofuranyl methylcarbamate]
AVERAGE ROOT DAMAGE RATINGS, Test No. 3 (Southern corn rootworm [2]): 4.3 | AVERAGE ROOT DAMAGE RATINGS, Test No. 4 (Southern corn rootworm [2]): 3.8 | AVERAGE ROOT DAMAGE RATINGS, Test No. 5 (Southern corn rootworm [2]): 4.7 | AVERAGE ROOT DAMAGE RATINGS, Test No. 1 (Southern corn rootworm [2]): 4.8 | AVERAGE ROOT DAMAGE RATINGS, Test No. 2 (Southern corn rootworm [2]): 4.1

CCc1nc(SC)n(C(=O)N(C)C)n1 [Example XVI]
Corn Rootworm (SCR) rating (Southern Corn Rootworm [1]; 3 ppm): 0.5 | Corn Rootworm (SCR) rating (Southern Corn Rootworm [1]; 12 ppm): 2.5 | Corn Rootworm (SCR) rating (Southern Corn Rootworm [1]; 25 ppm): 3.5 | Corn Rootworm (SCR) rating (Southern Corn Rootworm [1]; 100 ppm): 3.7 | total kill of corn rootworm (in words) (Southern Corn Rootworm [1]; any concentration): failed to give a total kill at any concentration | toxicity to corn rootworm (in words) (Southern Corn Rootworm [1]): displayed toxicity to corn rootworm

CCCCc1nc(SC)n(C(=O)N(C)C)n1 [R' = butyl]
AVERAGE ROOT DAMAGE RATINGS, Test No. 3 (Southern corn rootworm [2]): 0 (100) | AVERAGE ROOT DAMAGE RATINGS, Test No. 4 (Southern corn rootworm [2]): 0.4 | AVERAGE ROOT DAMAGE RATINGS, Test No. 5 (Southern corn rootworm [2]): 0.5 | AVERAGE ROOT DAMAGE RATINGS, Test No. 1 (Southern corn rootworm [2]): 4.4 | AVERAGE ROOT DAMAGE RATINGS, Test No. 2 (Southern corn rootworm [2]): 3.6

CCc1nc(SC)n(C(=O)N(C)C)n1 [R' = ethyl]
AVERAGE ROOT DAMAGE RATINGS, Test No. 3 (Southern corn rootworm [2]): 0 (100) | AVERAGE ROOT DAMAGE RATINGS, Test No. 4 (Southern corn rootworm [2]): 1.1 | AVERAGE ROOT DAMAGE RATINGS, Test No. 5 (Southern corn rootworm [2]): 1.0 | AVERAGE ROOT DAMAGE RATINGS, Test No. 1 (Southern corn rootworm [2]): 4.3 | AVERAGE ROOT DAMAGE RATINGS, Test No. 2 (Southern corn rootworm [2]): 3.0

CSc1nc(CC(C)C)nn1C(=O)N(C)C [R' = isobutyl]
AVERAGE ROOT DAMAGE RATINGS, Test No. 3 (Southern corn rootworm [2]): 0.6 | AVERAGE ROOT DAMAGE RATINGS, Test No. 4 (Southern corn rootworm [2]): 0.3 | AVERAGE ROOT DAMAGE RATINGS, Test No. 5 (Southern corn rootworm [2]): 2.3 | AVERAGE ROOT DAMAGE RATINGS, Test No. 1 (Southern corn rootworm [2]): 4.8 | AVERAGE ROOT DAMAGE RATINGS, Test No. 2 (Southern corn rootworm [2]): 3.6

CSc1nc(C)nn1C(=O)N(C)C [R' = methyl]
AVERAGE ROOT DAMAGE RATINGS, Test No. 3 (Southern corn rootworm [2]): 0 (100) | AVERAGE ROOT DAMAGE RATINGS, Test No. 4 (Southern corn rootworm [2]): 0.1 | AVERAGE ROOT DAMAGE RATINGS, Test No. 5 (Southern corn rootworm [2]): 0.5 | AVERAGE ROOT DAMAGE RATINGS, Test No. 1 (Southern corn rootworm [2]): 2.7 | AVERAGE ROOT DAMAGE RATINGS, Test No. 2 (Southern corn rootworm [2]): 0 (100)

CCCc1nc(SC)n(C(=O)N(C)C)n1 [R' = propyl]
AVERAGE ROOT DAMAGE RATINGS, Test No. 3 (Southern corn rootworm [2]): 0.3 | AVERAGE ROOT DAMAGE RATINGS, Test No. 4 (Southern corn rootworm [2]): 1.8 | AVERAGE ROOT DAMAGE RATINGS, Test No. 5 (Southern corn rootworm [2]): 2.3 | AVERAGE ROOT DAMAGE RATINGS, Test No. 1 (Southern corn rootworm [2]): 4.4 | AVERAGE ROOT DAMAGE RATINGS, Test No. 2 (Southern corn rootworm [2]): 3.1
